This note sets out measurements from patent US20030157516A1, “G protein coupled receptor” (priority 2000, published 2003).

Experiment [1] deals with C6 glioma. Briefly: Preliminary [3H]adenine binding on wild-type cells. How it is done:
(§1) A) Methods—[3H]Adenine binding experiments were performed to characterize wild type cell lines before transfection as well as transiently and permanently transfected cell lines. Membranes were thawed on ice and diluted in 50 mM HEPES buffer, pH 7.4 supplemented with 10 mM MgCl2 and 1 mM EGTA. […] Both assays were carried out in a final volume of 500 μl, using 18 μg of membrane protein for the transfected CHO cells and 30 μg of membrane protein for the wild type CHO cells for the saturation binding. For competition binding experiments, 15 and 50 μg of membrane protein was used for the transfected and wild type cells, respectively. The reaction was terminated by rapid filtration through Whatman GF/B filters using a Brandel multi-channel cell harvester (96 wells). The filters were washed three times with 3 ml ice cold 50 mM HEPES buffer, pH 7.4, transferred to liquid scintillation vials and 3 ml of scintillation fluid (Ultima Gold MV, Packard, Netherlands) was added. Samples were counted in a β-scintillation counter after at least 6 hours to permit the glass fiber filters to become uniformly translucent.
(§2) The assay conditions were identical to those for the transfected cells.

Experiment [2] concerns CHO. Kind of experiment: Preliminary [3H]adenine binding on wild-type cells. Particulars: pool 1 and pool 2. The method, then:
as §1, §2

Experiment [3] has as its system Cos7. Briefly: Preliminary [3H]adenine binding on wild-type cells. The method, then: as §1, §2
The test system of experiment [4] is HEK293. Kind of experiment: Preliminary [3H]adenine binding on wild-type cells. The method, then: as §1, §2
Experiment [5] concerns NIH3T3. Kind of experiment: Preliminary [3H]adenine binding on wild-type cells. How it is done:
as §1, §2

For experiment [6], the target named is T1, adenine binding rat receptor (Rattus norvegicus, UniProt Q7TN49).
T1 construct: expressed in transfected cells; host or cells: CHO cells, transient, lipofectamine PLUS
T1 sequence (Q7TN49 1-304): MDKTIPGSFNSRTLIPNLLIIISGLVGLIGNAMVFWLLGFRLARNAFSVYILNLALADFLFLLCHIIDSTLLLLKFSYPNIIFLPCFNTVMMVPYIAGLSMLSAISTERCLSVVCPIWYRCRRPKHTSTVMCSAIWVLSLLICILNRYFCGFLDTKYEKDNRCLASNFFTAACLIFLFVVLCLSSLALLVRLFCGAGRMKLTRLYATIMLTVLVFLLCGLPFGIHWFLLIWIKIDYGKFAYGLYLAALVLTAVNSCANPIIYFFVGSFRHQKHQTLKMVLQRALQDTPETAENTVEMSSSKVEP
Kind of experiment: [3H]adenine saturation binding on CHO membranes transiently transfected. Particulars: transfected cells. How it is done: (§3) The membranes were prepared as total particulate fractions. The cell lines were cultured to […] on 145 mm petri dishes and treated with 5 mM sodium butyrate, 24 hours before collection. The culturing medium was removed and the cells were washed twice with ice cold phosphate buffered saline (PBS without Ca^2+ and Mg^2+), scraped from the plates in 50 mM Tris-HCl buffer, pH 7.4, and collected by centrifugation (10 minutes at 16,000 RPM at 4° C.). The cell pellet was re-suspended in hypotonic 5 mM Tris-HCl buffer, pH 7.4, and homogenized with an Ultra Turrax homogenizer (Janker Kunkel, Germany). The homogenate was centrifuged at 18,000 RPM for 20 minutes at 4° C. The final pellet was re-suspended in 50 mM Tris-HCl buffer, pH 7.4 and stored in aliquots at −70° C. A protein determination was performed using the Bradford protein assay (Biorad, Germany) using bovine serum albumin (BSA) as standard.
as §1
Addition of Gpp-NHp blocks the high-affinity or agonist binding sites of GPCRs, so that only low-affinity sites are available.

Experiment [7] deals with wild type CHO cells. Kind of experiment: [3H]adenine saturation binding on wild type CHO membranes. Particulars: mean n=3. How it is done:
as §3
A) Methods—[3H]Adenine binding experiments were performed to characterize wild type cell lines before transfection as well as transiently and permanently transfected cell lines. Membranes were thawed on ice and diluted in 50 mM HEPES buffer, pH 7.4 supplemented with 10 mM MgCl2 and 1 mM EGTA. […] Samples were counted in a β-scintillation counter after at least 6 hours to permit the glass fiber filters to become uniformly translucent. […]

Values joined by “and” are separate entries in the source; they are usually repeats but may differ in a detail not shown here. Equal values may be shown once.

By Kd is commonly meant a measure of binding affinity in units of concentration. Lower therefore signals tighter binding. Consider `Nc1ncnc2nc[nH]c12` [[^3H]adenine], for which the “[3H]adenine binding” value in experiment [1] is 839 fmoles/mg protein; in experiment [2], 303 fmoles/mg protein (pool 1) and 583 fmoles/mg protein (pool 2); in experiment [3] it was 226 fmoles/mg protein; in experiment [4] it was 168 fmoles/mg protein; in experiment [5], 642 fmoles/mg protein. Also, the “average saturation binding levels” value in experiment [6] is “around 19 pmol/mg”. In addition, the Bmax in experiment [6] (100 μM Gpp-NHp, mean n=3) was 17341 fmoles/mg protein; in experiment [6] (No Gpp-NHp, mean n=3), 18894 fmoles/mg protein; in experiment [6] (No Gpp-NHp, single experiments), 25375 fmoles/mg protein and 17569 fmoles/mg protein and 13738 fmoles/mg protein. Besides, the Kd in experiment [6] (100 μM Gpp-NHp, mean n=3) is 61 nM; in experiment [6] (100 μM Gpp-NHp, single experiments), 57 nM and 72 nM and 54 nM; in experiment [6] (No Gpp-NHp, mean n=3) it was 24 nM; in experiment [6] (No Gpp-NHp, single experiments) it was 23 nM and 25 nM; in experiment [7] (100 μM Gpp-NHp), 16 nM; in experiment [7] (No Gpp-NHp), 26 nM.
